Columns and labels:
DDR2 [1] = target: T1, DDR2 (Homo sapiens, UniProt Q16832); experiment: DDR2 binding assay (LanthaScreen Europium Kinase Binding assay); parameters: purchased Life Technologies; settings: binding assay, 5 nM DDR2, 10 nM Kinase Tracer 178; Ki from IC50 by Cheng-Prusoff; read-out: Ki DDR2
T1 sequence (Q16832 22-855): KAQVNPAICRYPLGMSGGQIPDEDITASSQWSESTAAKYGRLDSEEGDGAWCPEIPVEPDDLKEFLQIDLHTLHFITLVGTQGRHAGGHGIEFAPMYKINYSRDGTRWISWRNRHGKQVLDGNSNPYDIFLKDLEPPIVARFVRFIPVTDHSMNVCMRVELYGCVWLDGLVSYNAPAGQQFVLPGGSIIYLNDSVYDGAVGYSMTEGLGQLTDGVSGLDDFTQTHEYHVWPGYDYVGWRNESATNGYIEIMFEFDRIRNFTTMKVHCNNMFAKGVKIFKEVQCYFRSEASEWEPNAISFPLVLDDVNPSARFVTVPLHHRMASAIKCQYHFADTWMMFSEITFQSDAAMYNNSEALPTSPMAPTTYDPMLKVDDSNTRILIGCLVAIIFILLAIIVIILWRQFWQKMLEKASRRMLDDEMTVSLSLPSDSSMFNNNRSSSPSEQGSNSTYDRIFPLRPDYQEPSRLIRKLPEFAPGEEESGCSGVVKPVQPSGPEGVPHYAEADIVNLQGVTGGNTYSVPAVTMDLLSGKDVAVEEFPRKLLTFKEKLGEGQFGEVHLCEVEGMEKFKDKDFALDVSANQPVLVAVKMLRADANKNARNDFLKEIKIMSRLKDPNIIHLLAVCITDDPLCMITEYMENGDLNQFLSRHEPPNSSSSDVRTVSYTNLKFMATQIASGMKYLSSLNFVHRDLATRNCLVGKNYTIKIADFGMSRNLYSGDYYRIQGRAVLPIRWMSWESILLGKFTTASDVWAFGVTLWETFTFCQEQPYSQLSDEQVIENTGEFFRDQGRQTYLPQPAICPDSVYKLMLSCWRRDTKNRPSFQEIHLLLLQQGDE
Outline: (§1)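 TR-FRET tracer-displacement format: 665/615 nm emission ratio (340 nm excitation) gave IC50 by 4-parameter fit, then Ki via Cheng-Prusoff. Each kinase at 5 nM with 2 nM Eu-anti-GST antibody and Tracer 178 (DDR1 20 nM, DDR2 10 nM), 1 h, room temperature, HEPES pH 7.5 buffer.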

DDR1 [2] = target: T2, DDR1 (Homo sapiens, UniProt Q08345); experiment: DDR1 binding assay (LanthaScreen Europium Kinase Binding assay); parameters: purchased Carna Biosciences; settings: binding assay, 5 nM DDR1, 20 nM Kinase Tracer 178; Ki from IC50 by Cheng-Prusoff; read-out: Ki DDR1
Outline: as §1

DDR2 [3] = target: T1, DDR2; experiment: DDR2 cell based assay (phospho-ELISA in HEK293T-DDR2 recombinant cells); parameters: expressed in transfected cells; host or cells: HEK293T-DDR2 recombinant cells; settings: bovine Type II Collagen 50 μg/ml
Experimental: The inhibition of DDR2 phosphorylation by compounds was evaluated in HEK293T-DDR2 recombinant cells by phospho-ELISA assay. Briefly, HEK293T-DDR2 cells were seeded in poly-D-lysine-coated 24-well plates at a density of 250.000 cells/well and incubated for 1.5 hours at 37° C. and 5% CO2 in DMEM+10% FBS. After that, the medium was changed to serum-free DMEM and cells were incubated for 3 hours. Then. test compounds were added at different concentrations 30 minutes before stimulation with bovine Type II Collagen at 50 μg/ml for further 3 hours. For DDR2 phospho-ELISA assay (DuoSet IC Human Phospho-DDR2; R&D Systems), protein extracts were obtained by adding 60 μl/well of lysis buffer prepared according to the manufacturer's instructions. Protein concentration in the samples was determined by BCA assay and the levels of phospho-DDR2 were determined following R&D Systems indications. Raw data were normalized to maximal inhibition control (0% for normalization) and positive control (100% for normalization; cells treated with […] collagen II) and IC50 parameters were calculated in GraphPad Prism 8.0 software, using sigmoidal dose-response curve fitting with variable slope.

DDR1 [4] = target: T2, DDR1; experiment: DDR1 cell based assay (PathHunter U2OS DDR1 assay); parameters: host or cells: U2OS-DDR1 (PathHunter); settings: U2OS-DDR1 cells, bovine Type II Collagen 20 μg/ml
Outline: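 Receptor activation measured by enzyme-fragment complementation luminescence in engineered U2OS cells. Compound added 30 min before overnight challenge with 20 μg/ml bovine collagen II; data scaled between vehicle and collagen-stimulated controls, IC50 derived by four-parameter variable-slope fitting.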

T2 sequence (Q08345 19-913): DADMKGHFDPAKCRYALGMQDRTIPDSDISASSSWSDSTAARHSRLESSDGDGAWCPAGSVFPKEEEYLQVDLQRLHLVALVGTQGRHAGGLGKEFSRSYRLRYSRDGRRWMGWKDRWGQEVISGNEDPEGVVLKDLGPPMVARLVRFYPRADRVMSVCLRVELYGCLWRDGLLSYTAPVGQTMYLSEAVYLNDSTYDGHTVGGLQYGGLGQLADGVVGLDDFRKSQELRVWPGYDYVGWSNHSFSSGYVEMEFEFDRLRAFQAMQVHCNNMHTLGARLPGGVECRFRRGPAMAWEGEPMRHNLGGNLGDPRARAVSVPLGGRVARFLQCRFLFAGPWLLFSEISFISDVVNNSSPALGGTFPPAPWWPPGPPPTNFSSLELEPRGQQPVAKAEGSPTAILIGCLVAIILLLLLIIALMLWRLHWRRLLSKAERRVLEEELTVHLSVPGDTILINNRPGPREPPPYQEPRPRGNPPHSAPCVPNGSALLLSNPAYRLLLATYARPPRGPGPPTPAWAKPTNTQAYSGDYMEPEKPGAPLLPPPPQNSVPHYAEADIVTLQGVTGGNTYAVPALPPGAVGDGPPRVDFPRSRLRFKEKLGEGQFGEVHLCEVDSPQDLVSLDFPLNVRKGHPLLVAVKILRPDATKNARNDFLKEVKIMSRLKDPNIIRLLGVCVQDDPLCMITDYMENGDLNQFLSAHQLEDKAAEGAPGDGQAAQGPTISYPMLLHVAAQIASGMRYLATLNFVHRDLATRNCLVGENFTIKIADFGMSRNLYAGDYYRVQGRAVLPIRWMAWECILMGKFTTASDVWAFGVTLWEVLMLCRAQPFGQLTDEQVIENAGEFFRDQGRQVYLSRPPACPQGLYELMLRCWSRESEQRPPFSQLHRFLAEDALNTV

| Structure (SMILES) | Ki (DDR2 [1]) [nM] | Ki (DDR1 [2]) [nM] | IC50 (DDR2 [3]) [nM] | IC50 (DDR1 [4]) [nM] |
| --- | --- | --- | --- | --- |
| Cc1ccc(-n2nc(C(C)(C)C)cc2NC(=O)c2csc3c2CCN(Cc2cnc4[nH]ncc4c2)C3)cc1 [Example 75, 6-((1H-pyrazolo[3,4-b]pyridin-5-yl)methyl)-N-(3-(tert-butyl)-1-(p-tolyl)-1H-pyrazol-5-yl)-4,5,6,7-tetrahydrothieno[2,3-c]pyridine-3-carboxamide] | < 25 | < 25 | < 25 | < 25 |
| O=C(Nc1ccc(OC2CCOC2)c(C(F)(F)F)c1)c1csc2c1CCN(C(=O)c1cnc3ccccn13)C2 (centres unmarked) [Example 12, 6-(imidazo[1,2-a]pyridine-3-carbonyl)-N-(4-((tetrahydrofuran-3-yl)oxy)-3-(trifluoromethyl)phenyl)-4,5,6,7-tetrahydrothieno[2,3-c]pyridine-3-carboxamide] | < 25 | < 25 | < 25 | < 25 |
| Cc1n[nH]c2ncc(CN3CCc4c(C(=O)Nc5cncc(C(F)(F)F)c5)csc4C3)cc12 [Example 150, 6-((3-methyl-1H-pyrazolo[3,4-b]pyridin-5-yl)methyl)-N-(5-(trifluoromethyl)pyridin-3-yl)-4,5,6,7-tetrahydrothieno[2,3-c]pyridine-3-carboxamide] | < 25 | < 25 | < 25 | < 25 |
| O=C(Nc1cccc(C(F)(F)F)c1)c1csc2c1CCN(C(=O)c1cnn3ccncc13)C2 [Example 93, 6-(pyrazolo[1,5-a]pyrazine-3-carbonyl)-N-(3-(trifluoromethyl)phenyl)-4,5,6,7-tetrahydrothieno[2,3-c]pyridine-3-carboxamide] | < 25 | < 25 | < 25 | < 25 |
| COc1ccc(NC(=O)c2csc3c2CCN(Cc2cnc4[nH]ccc4c2)C3)cc1C(F)(F)F [Example 71, 6-((1H-pyrrolo[2,3-b]pyridin-5-yl)methyl)-N-(4-methoxy-3-(trifluoromethyl)phenyl)-4,5,6,7-tetrahydrothieno[2,3-c]pyridine-3-carboxamide] | < 25 | < 25 | < 25 | < 25 |
| CC1(C)c2scc(C(=O)Nc3cccc(C(F)(F)F)c3)c2CCN1C(=O)c1cnc2ccccn12 [Example 102, 6-(imidazo[1,2-a]pyridine-3-carbonyl)-7,7-dimethyl-N-(3-(trifluoromethyl)phenyl)-4,5,6,7-tetrahydrothieno[2,3-c]pyridine-3-carboxamide] | < 25 | < 25 | 25 to 50 | < 25 |
| O=C(Nc1cncc(C(F)(F)F)c1)c1csc2c1CCN(C(=O)c1cnn3ccncc13)C2 [Example 108, 6-(pyrazolo[1,5-a]pyrazine-3-carbonyl)-N-(5-(trifluoromethyl)pyridin-3-yl)-4,5,6,7-tetrahydrothieno[2,3-c]pyridine-3-carboxamide] | < 25 | < 25 | 25 to 50 | < 25 |
| O=C(Nc1cccc(OC(F)(F)F)c1)c1csc2c1CCN(Cc1cnc3[nH]ccc3c1)C2 [Example 72, 6-((1H-pyrrolo[2,3-b]pyridin-5-yl)methyl)-N-(3-(trifluoromethoxy)phenyl)-4,5,6,7-tetrahydrothieno[2,3-c]pyridine-3-carboxamide] | < 25 | < 25 | < 25 | < 25 |
| Cn1nc(C(C)(C)C)cc1NC(=O)c1csc2c1CCN(C(=O)c1cnc3ccccn13)C2 [Example 3, N-(3-(tert-butyl)-1-methyl-1H-pyrazol-5-yl)-6-(imidazo[1,2-a]pyridine-3-carbonyl)-4,5,6,7-tetrahydrothieno[2,3-c]pyridine-3-carboxamide] | < 25 | < 25 | < 25 | < 25 |
| CC(C)(C)c1cc(NC(=O)c2csc3c2CCN(Cc2cnc4[nH]ncc4c2)C3)on1 [Example 133, 6-((1H-pyrazolo[3,4-b]pyridin-5-yl)methyl)-N-(3-(tert-butyl)isoxazol-5-yl)-4,5,6,7-tetrahydrothieno[2,3-c]pyridine-3-carboxamide] | < 25 | < 25 | < 25 | < 25 |
| O=C(Nc1cccc(OC(F)(F)F)c1)c1csc2c1CCN(Cc1cnc3[nH]ncc3c1)C2 [Example 66, 6-((1H-pyrazolo[3,4-b]pyridin-5-yl)methyl)-N-(3-(trifluoromethoxy)phenyl)-4,5,6,7-tetrahydrothieno[2,3-c]pyridine-3-carboxamide] | < 25 | < 25 | < 25 | < 25 |
| O=C(Nc1cc(F)cc(C(F)(F)F)c1)c1csc2c1CCN(Cc1cnc3[nH]ccc3c1)C2 [Example 73, 6-((1H-pyrrolo[2,3-b]pyridin-5-yl)methyl)-N-(3-fluoro-5-(trifluoromethyl)phenyl)-4,5,6,7-tetrahydrothieno[2,3-c]pyridine-3-carboxamide] | 25 to 50 | < 25 | < 25 | < 25 |

Next, values leading:

| Ki (DDR2 [1]) [nM] | Ki (DDR1 [2]) [nM] | IC50 (DDR2 [3]) [nM] | IC50 (DDR1 [4]) [nM] | Structure (SMILES) |
| --- | --- | --- | --- | --- |
| < 25 | < 25 | < 25 | < 25 | O=C(Nc1cccc(C(F)(F)F)c1)c1csc2c1CCN(Cc1cnc3cnccn13)C2 [Example 84, 6-(imidazo[1,2-a]pyrazin-3-ylmethyl)-N-(3-(trifluoromethyl)phenyl)-4,5,6,7-tetrahydrothieno[2,3-c]pyridine-3-carboxamide] |
| < 25 | < 25 | < 25 | < 25 | C[C@@H]1c2scc(C(=O)Nc3cccc(C(F)(F)F)c3)c2CCN1C(=O)c1cnc2ccccn12 [Example 100, (R)-6-(imidazo[1,2-a]pyridine-3-carbonyl)-7-methyl-N-(3-(trifluoromethyl)phenyl)-4,5,6,7-tetrahydrothieno[2,3-c]pyridine-3-carboxamide] |
| < 25 | < 25 | 25 to 50 | < 25 | O=C(Nc1cc(F)cc(C(F)(F)F)c1)c1csc2c1CCN(Cc1cnc3[nH]ncc3c1)C2 [Example 67, 6-((1H-pyrazolo[3,4-b]pyridin-5-yl)methyl)-N-(3-fluoro-5-(trifluoromethyl)phenyl)-4,5,6,7-tetrahydrothieno[2,3-c]pyridine-3-carboxamide] |
| < 25 | < 25 | 25 to 50 | < 25 | CC1c2scc(C(=O)Nc3cccc(C(F)(F)F)c3)c2CCN1Cc1cnc2[nH]ccc2c1 (single isomer, unassigned) [Example 106, 6-((1H-pyrrolo[2,3-b]pyridin-5-yl)methyl)-7-methyl-N-(3-(trifluoromethyl)phenyl)-4,5,6,7-tetrahydrothieno[2,3-c]pyridine-3-carboxamide] |
| < 25 | < 25 | 50 to 80 | < 25 | O=C(Nc1cc(F)cc(OC(F)(F)F)c1)c1csc2c1CCN(Cc1cnc3[nH]ncc3c1)C2 [Example 174, 6-((1H-pyrazolo[3,4-b]pyridin-5-yl)methyl)-N-(3-fluoro-5-(trifluoromethoxy)phenyl)-4,5,6,7-tetrahydrothieno[2,3-c]pyridine-3-carboxamide] |
